Where two headings read alike, the source gives them in different places.
Legend:
[1] = target: T1, human FGFR3 V555M enzyme (cytoplasmic domain carrying V555M mutation) (Homo sapiens, UniProt P22607, V555M); assay: FGFR3 V555M mobility shift assay (enzymatic assay); type: biochemical; conditions: 30 μM ATP, 45 minutes at 30° C., Caliper EZ reader II
T1 construct: human FGFR3 V555M enzyme (cytoplasmic domain carrying V555M mutation, from Carna Biosciences); purchased Carna Biosciences
Method: FGFR3 V555M Mobility Shift Assay (Enzymatic Assay)
(§1) In a final reaction volume of 25 μL, 0.04 ng/μL human FGFR3 V555M enzyme (cytoplasmic domain carrying V555M mutation, from Carna Biosciences) was incubated with 30 μM ATP, 1 μM FL-peptide 30 substrate and 250 nL of testing compound (1% DMSO final) in assay buffer (100 mM HEPES pH 7.4, 10 mM MgCl2, 0.003% Brij35, 1 mM DTT). After incubation for 45 minutes at 30° C. the reaction was stopped with 10 μL of 0.5M EDTA pH 8.0, and then 25 μL of reaction mixture was transferred to reading plate and measured on Caliper EZ reader II. The substrate-product conversion rate was used as raw data for normalization and concentration-response curve (10 dose points with 4× serial dilution, starting with 10 μM) was plotted using Prism to calculate IC50 (M), pIC50 (−log IC50) and HillSlope value.

[2] = target: T2, NIH/3T3 cells overexpressing FGFR3 WT-TACC3 fusion protein (Homo sapiens, UniProt P22607); assay: NIH/3T3 FGFR3 WT-TACC3 cell proliferation assay; type: cell-based; conditions: 72-hr incubation, CellTiter Glo, starting with 10 μM; read-out: NIH/3T3 FGFR3 WT-TACC3 CTG (IC50)
T2 construct: NIH/3T3 FGFR3 WT-TACC3 CTG (IC50); other: 72-hr incubation, CellTiter Glo, starting with 10 μM; fused on or other part: Q9Y6A5 (Transforming acidic coiled-coil-containing protein 3)
T2 sequence (P22607 whole entry, change not shown, the tested form may be a part): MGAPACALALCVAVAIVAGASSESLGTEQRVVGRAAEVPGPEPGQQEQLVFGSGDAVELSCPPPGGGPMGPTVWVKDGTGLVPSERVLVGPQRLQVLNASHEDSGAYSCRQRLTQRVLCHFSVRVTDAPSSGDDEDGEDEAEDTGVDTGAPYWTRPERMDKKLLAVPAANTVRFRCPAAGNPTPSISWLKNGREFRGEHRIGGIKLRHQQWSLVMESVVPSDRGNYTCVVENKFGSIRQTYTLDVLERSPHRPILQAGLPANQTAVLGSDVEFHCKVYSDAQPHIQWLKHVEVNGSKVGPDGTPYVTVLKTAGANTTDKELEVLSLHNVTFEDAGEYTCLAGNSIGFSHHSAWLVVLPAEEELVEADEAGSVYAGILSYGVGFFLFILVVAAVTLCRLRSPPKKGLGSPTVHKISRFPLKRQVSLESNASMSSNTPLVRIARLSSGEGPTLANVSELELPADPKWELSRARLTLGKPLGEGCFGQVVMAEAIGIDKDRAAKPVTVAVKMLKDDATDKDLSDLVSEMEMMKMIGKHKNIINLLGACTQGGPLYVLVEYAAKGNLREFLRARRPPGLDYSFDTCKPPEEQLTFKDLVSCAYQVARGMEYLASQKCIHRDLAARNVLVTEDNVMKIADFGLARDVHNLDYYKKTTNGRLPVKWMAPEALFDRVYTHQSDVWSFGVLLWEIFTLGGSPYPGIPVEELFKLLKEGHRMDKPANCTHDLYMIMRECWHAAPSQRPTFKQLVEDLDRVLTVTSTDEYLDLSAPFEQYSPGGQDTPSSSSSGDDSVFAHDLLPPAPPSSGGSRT
Method: NIH/3T3 FGFR3 WT-TACC3 Cell Proliferation Assay
(§2) In day 1, 90 μL of cell suspension (NIH/3T3 cells overexpressing FGFR3 WT-TACC3 fusion protein) (total 30,000 cells per well in growth medium (DMEM containing 1% Glutamax, 10% FBS and 1% Pen/Strep)) was seeded in a 96-well plate and then incubated overnight at 37° C. and 5% CO2. In day 2, 10 μL of growth medium containing 10-fold stock solution of testing compound was added into cell cultures (9 dose points with 4× serial dilution, starting with 10 μM, 0.1% DMSO final). After 72-hr incubation at 37° C. and 5% CO2, in day 5 a volume of 50 μL CellTiter Glo (CTG) reagent was added into cell-containing 96-well plate and the plate was incubated at room temperature for 10 minutes before RLUs (relative light unit) were measured on a microplate reader with luminescence detection module. The RLU value was normalized to survival % and concentration-response curve was plotted using Prism to calculate IC50 (M), pIC50 (−log IC50) and HillSlope value.

[3] = target: T3, human FGFR3 wild type enzyme (cytoplasmic domain) (Homo sapiens, UniProt P22607); assay: FGFR3 wild type mobility shift assay (enzymatic assay); type: biochemical; conditions: 75 μM ATP, 50 minutes at 30° C., Caliper EZ reader II
T3 construct: human FGFR3 wild type enzyme (cytoplasmic domain, from Carna Biosciences); purchased Carna Biosciences
T3 sequence (P22607 397-806 limits assumed): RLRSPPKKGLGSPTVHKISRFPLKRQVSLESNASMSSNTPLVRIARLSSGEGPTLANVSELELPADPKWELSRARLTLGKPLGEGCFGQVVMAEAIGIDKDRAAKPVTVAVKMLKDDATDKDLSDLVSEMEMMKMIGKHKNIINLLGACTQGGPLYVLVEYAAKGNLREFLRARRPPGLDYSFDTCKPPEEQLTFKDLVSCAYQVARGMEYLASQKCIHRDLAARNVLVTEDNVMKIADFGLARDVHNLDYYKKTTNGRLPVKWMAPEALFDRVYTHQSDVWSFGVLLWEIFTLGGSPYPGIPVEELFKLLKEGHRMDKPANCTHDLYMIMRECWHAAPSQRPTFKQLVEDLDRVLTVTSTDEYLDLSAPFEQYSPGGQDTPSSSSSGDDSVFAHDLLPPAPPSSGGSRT
Method: FGFR3 Wild Type Mobility Shift Assay (Enzymatic Assay)
as §1, with “FGFR3 wild type” for “FGFR3 V555M”, “(cytoplasmic domain,” for “(cytoplasmic domain carrying V555M mutation,”, “with 75” for “with 30”, “for 50” for “for 45”

[4] = test system: NIH/3T3 cells transfected with the same control vector; assay: NIH/3T3 mock cell proliferation assay (counter assay, general toxicity); type: cell-based; conditions: 72-hr incubation, CellTiter Glo, starting with 30 μM, counter assay for general toxicity, read-out: NIH/3T3 MOCK CTG (IC50)
Method: NIH/3T3 Mock Cell Proliferation Assay
as §2, with “cells transfected with the same control vector as in the above two proliferation assays)” for “cells overexpressing FGFR3 WT-TACC3 fusion protein)”, “with 3×” for “with 4×”, “with 30” for “with 10”, “μM, 0.3%” for “μM, 0.1%”

[5] = target: T4, NIH/3T3 cells overexpressing FGFR3 V555M-TACC3 fusion protein (Homo sapiens, UniProt P22607, V555M, cells depend on it); assay: NIH/3T3 FGFR3 V555M-TACC3 cell proliferation assay; type: cell-based; conditions: 72-hr incubation, CellTiter Glo, starting with 10 μM; read-out: NIH/3T3 FGFR3 V555M-TACC3 CTG (IC50)
T4 construct: NIH/3T3 FGFR3 V555M-TACC3 CTG (IC50); other: 72-hr incubation, CellTiter Glo, starting with 10 μM; fused on or other part: Q9Y6A5 (Transforming acidic coiled-coil-containing protein 3)
T4 sequence (P22607 whole entry V555M, the tested form may be a part): as the sequence (P22607 whole entry, change not shown, the tested form may be a part) above, with V555M counted along it
Method: NIH/3T3 FGFR3 V555M-TACC3 Cell Proliferation Assay
as §2, with “V555M-TACC3” for “WT-TACC3”

T1 sequence (P22607 397-806 V555M limits assumed): as the sequence (P22607 397-806 limits assumed) above, with V159M counted along it

Compound	IC50 [1] [nM]	GI50 [2] [nM]	IC50 [3] [nM]	GI50 [5] [nM]	IC50 ([4]; Mus musculus, NIH3T3, 72 h) [nM]	IC50 [4] [nM]
Cc1cc(N2CCOCC2)cc2[nH]c(-c3c(N[C@@H](C)c4ncccn4)c4ccccc4[nH]c3=O)nc12 [Compound 46, (S)-3-(4-methyl-6-morpholino-1H-benzo[d]imidazol-2-yl)-4-((1-(pyrimidin-2-yl)ethyl)-amino)quinolin-2(1H)-one]	0.742	19.9	1.17	15.9	3910	–
C[C@H](Nc1c(-c2nc3ccc(N4CCOCC4)cc3[nH]2)c(=O)[nH]c2c(F)cccc12)c1ccccn1 [Compound 16, (S)-8-fluoro-3-(6-morpholino-1H-benzo[d]imidazol-2-yl)-4-((1-(pyridin-2-yl)ethyl)-amino)quinolin-2(1H)-one]	2.66	253	16.6	274	2600	–
COC(=O)C1CN(c2ccc3nc(-c4c(N[C@@H](C)c5ccccn5)c5ccccc5[nH]c4=O)[nH]c3c2)CCO1 (single isomer, unassigned) [Compound 61, (S*)-methyl 4-(2-(2-oxo-4-(((S)-1-(pyridin-2-yl)ethyl)amino)-1,2-dihydroquinolin-3-yl)-1H-benzo[d]imidazol-6-yl)morpholine-2-carboxylate]	1.13	113	2.15	111	–	1840
C[C@H](Nc1c(-c2nc3ccc(C(=O)N4CCOCC4)cc3[nH]2)c(=O)[nH]c2ccccc12)c1ccccn1 [Compound 20, (S)-3-(6-(morpholine-4-carbonyl)-1H-benzo[d]imidazol-2-yl)-4-((1-(pyridin-2-yl)-ethyl)amino)quinolin-2(1H)-one]	0.49	23.5	0.826	17.1	952	–
CC(Nc1c(-c2nc3ccc(N4CCOCC4)cc3[nH]2)c(=O)[nH]c2ccccc12)c1cnccn1 (single isomer, unassigned) [Compound 35b, (S*)-3-(6-morpholino-1H-benzo[d]imidazol-2-yl)-4-((1-(pyrazin-2-yl)ethyl)amino)-quinolin-2(1H)-one]	2.86	127	11.1	197	1680	–

The remaining compounds from weak to strong by IC50 [1], led by results:

IC50 [1] [nM]	GI50 [2] [nM]	IC50 [3] [nM]	GI50 [5] [nM]	Compound	IC50 ([4]; Mus musculus, NIH3T3, 72 h) [nM]	IC50 [4] [nM]
0.484	32.3	0.809	61.7	C[C@H](Nc1c(-c2nc3ccc(N4CCC(C(=O)O)CC4)cc3[nH]2)c(=O)[nH]c2ccccc12)c1ccccn1 [Compound 6, (S)-1-(2-(2-Oxo-4-((1-(pyridin-2-yl)ethyl)amino)-1,2-dihydroquinolin-3-yl)-H-benzo[d]imidazol-6-yl)piperidine-4-carboxylic acid 0.5formate]	795	–
0.358	46.1	0.367	66.5	C[C@H](Nc1c(-c2nc3cc(C(F)(F)F)c(N(C)C4CCN(C)CC4)cc3[nH]2)c(=O)[nH]c2ccccc12)c1ccccn1 [Compound 19, (S)-3-(6-(methyl(1-methylpiperidin-4-yl)amino)-5-(trifluoromethyl)-1H-benzo[d]-imidazol-2-yl)-4-((1-(pyridin-2-yl)ethyl)amino)quinolin-2(1H)-one]	2450	–
0.255	6.93	0.445	5.8	CC(Nc1c(-c2nc3cc(F)c(N4CCOCC4)cc3[nH]2)c(=O)[nH]c2ccccc12)c1ncccn1 (single isomer, unassigned) [Compound 27a, (S*)-3-(5-fluoro-6-morpholino-1H-benzo[d]imidazol-2-yl)-4-((1-(pyrimidin-2-yl)-ethyl)amino)quinolin-2(1H)-one]	3880	–
0.237	30.1	1.31	30.2	CC(Nc1c(-c2nc3ccc(N4CCOCC4)cc3[nH]2)c(=O)[nH]c2ccccc12)c1cocn1 (single isomer, unassigned) [Compound 51a, (S*)-3-(6-morpholino-1H-benzo[d]imidazol-2-yl)-4-((1-(oxazol-4-yl)ethyl)amino)-quinolin-2(1H)-one]	1180	–
0.168	3.15	0.313	1.85	C[C@@H]1CN(c2ccc3nc(-c4c(N[C@@H](C)c5ncccn5)c5ccccc5[nH]c4=O)[nH]c3c2)CCO1 (single isomer, unassigned) [Compound 40a]	2480	–
0.147	9.46	0.244	3.98	CC(Nc1c(-c2nc3ccc(N4CC5CCC(C4)O5)cc3[nH]2)c(=O)[nH]c2ccccc12)c1ncccn1 (single isomer, unassigned) [Compound 44a, 3-(6-(8-oxa-3-azabicyclo[3.2.1]octan-3-yl)-1H-benzo[d]imidazol-2-yl)-4-(((S*)-1-(pyrimidin-2-yl)ethyl)amino)quinolin-2(1H)-one]	3040	–
0.136	6.58	0.174	6.47	CC(Nc1c(-c2nc3ccc(N4C[C@H](C)O[C@@H](C)C4)cc3[nH]2)c(=O)[nH]c2ccccc12)c1ncccn1 (single isomer, unassigned) [Compound 39a, 3-(6-((2S,6S)-2,6-dimethylmorpholino)-1H-benzo[d]imidazol-2-yl)-4-(((S*)-1-(pyrimidin-2-yl)ethyl)amino)quinolin-2(1H)-one]	1600	–
